In PubChem BioAssay AID328 (DTP/NCI, 2004):
Values joined by “and” are separate entries in the source; they are usually repeats but may differ in a detail not shown here. Equal values may be shown once. Inconclusive results and toxic doses are left out.

Test system: BDF1 mice, P388 leukemia ip, median survival T/C
Assay: NCI In Vivo Anticancer Drug Screen. Data for tumor model P388 Leukemia (intraperitoneal) in B6D2F1 (BDF1) mice
Conditions: endpoint: median survival time, higher = longer survival
Summary of the method: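 Steps: implant the tumour, treat one group with compound and another with vehicle, record survival, then divide treated by control.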

COc1cc2cc3c4cc(OC)c(OC)cc4cc[n+]3c(C)c2cc1OC
T/C (dose: 8.0 mg/kg/injection, schedule: Q03HX024 (ip), vehicle: saline): 150 % of control | T/C (dose: 12.5 mg/kg/injection, schedule: Q01DX009 (ip), vehicle: Klucel (hydroxypropylcellulose) (HPC)): 105 % of control | T/C (dose: 12.5 mg/kg/injection, schedule: Q01DX009 (ip), vehicle: saline): 165 % of control | T/C (dose: 12.5 mg/kg/injection, schedule: Q01DX009 (ip), vehicle: water): 195 % of control | T/C (dose: 25.0 mg/kg/injection, schedule: Q01DX009 (ip), vehicle: water): 195 % of control | T/C (dose: 25.0 mg/kg/injection, schedule: Q04DX003 (ip), vehicle: water): 170 % of control | T/C (dose: 32.0 mg/kg/injection, schedule: Q03HX008 (ip), vehicle: saline): 154 % of control | T/C (dose: 32.0 mg/kg/injection, schedule: Q03HX024 (ip), vehicle: saline): 168 % of control | T/C (dose: 37.5 mg/kg/injection, schedule: Q01DX001 (ip), vehicle: saline): 154 % of control | T/C (dose: 37.5 mg/kg/injection, schedule: Q01DX009 (ip), vehicle: saline): 162 % of control | T/C (dose: 50.0 mg/kg/injection, schedule: Q01DX009 (ip), vehicle: saline): 172 % of control and 181 % of control and 184 % of control | T/C (dose: 50.0 mg/kg/injection, schedule: Q01DX009 (ip), vehicle: water): 190 % of control | T/C (dose: 50.0 mg/kg/injection, schedule: Q04DX003 (ip), vehicle: water): 190 % of control | T/C (dose: 64.0 mg/kg/injection, schedule: Q01DX009 (ip), vehicle: saline): 159 % of control | T/C (dose: 64.0 mg/kg/injection, schedule: Q01DX009 (sc), vehicle: saline): 100 % of control | T/C (dose: 64.0 mg/kg/injection, schedule: Q03HX024 (ip), vehicle: saline): 163 % of control | T/C (dose: 75.0 mg/kg/injection, schedule: Q01DX001 (ip), vehicle: saline): 158 % of control | T/C (dose: 75.0 mg/kg/injection, schedule: Q01DX009 (ip), vehicle: saline): 183 % of control | T/C (dose: 75.0 mg/kg/injection, schedule: Q04DX003 (ip), vehicle: saline): 150 % of control | T/C (dose: 100.0 mg/kg/injection, schedule: Q01DX001 (ip), vehicle: water): 195 % of control | T/C (dose: 100.0 mg/kg/injection, schedule: Q01DX009 (ip), vehicle: Klucel (hydroxypropylcellulose) (HPC)): 170 % of control | T/C (dose: 100.0 mg/kg/injection, schedule: Q01DX009 (ip), vehicle: saline with Tween-80): 159 % of control and 177 % of control and 195 % of control | T/C (dose: 100.0 mg/kg/injection, schedule: Q01DX009 (ip), vehicle: saline): 172 % of control and 195 % of control | T/C (dose: 100.0 mg/kg/injection, schedule: Q01DX009 (ip), vehicle: water): 210 % of control | T/C (dose: 100.0 mg/kg/injection, schedule: Q04DX002 (ip), vehicle: saline): 163 % of control | T/C (dose: 100.0 mg/kg/injection, schedule: Q04DX003 (ip), vehicle: saline): 153 % of control | T/C (dose: 100.0 mg/kg/injection, schedule: Q04DX003 (ip), vehicle: water): 190 % of control | T/C (dose: 128.0 mg/kg/injection, schedule: Q01DX009 (ip), vehicle: saline): 163 % of control | T/C (dose: 128.0 mg/kg/injection, schedule: Q01DX009 (sc), vehicle: saline): 100 % of control | T/C (dose: 128.0 mg/kg/injection, schedule: Q03HX008 (ip), vehicle: saline): 154 % of control | T/C (dose: 128.0 mg/kg/injection, schedule: Q03HX024 (ip), vehicle: saline): 181 % of control | T/C (dose: 150.0 mg/kg/injection, schedule: Q01DX001 (ip), vehicle: saline): 162 % of control | T/C (dose: 150.0 mg/kg/injection, schedule: Q01DX009 (ip), vehicle: saline): 195 % of control | T/C (dose: 150.0 mg/kg/injection, schedule: Q04DX003 (ip), vehicle: saline): 162 % of control | T/C (dose: 200.0 mg/kg/injection, schedule: Q01DX001 (ip), vehicle: water): 185 % of control | T/C (dose: 200.0 mg/kg/injection, schedule: Q01DX009 (ip), vehicle: saline with Tween-80): 86 % of control and 181 % of control and 218 % of control | T/C (dose: 200.0 mg/kg/injection, schedule: Q01DX009 (ip), vehicle: saline): 172 % of control and 196 % of control and 204 % of control | T/C (dose: 200.0 mg/kg/injection, schedule: Q01DX009 (ip), vehicle: water): 165 % of control | T/C (dose: 200.0 mg/kg/injection, schedule: Q04DX002 (ip), vehicle: saline): 157 % of control | T/C (dose: 200.0 mg/kg/injection, schedule: Q04DX003 (ip), vehicle: saline): 169 % of control and 204 % of control | T/C (dose: 200.0 mg/kg/injection, schedule: Q04DX003 (ip), vehicle: water): 205 % of control | T/C (dose: 256.0 mg/kg/injection, schedule: Q01DX009 (sc), vehicle: saline): 100 % of control | T/C (dose: 256.0 mg/kg/injection, schedule: Q03HX024 (ip), vehicle: saline): 122 % of control | T/C (dose: 256.0 mg/kg/injection, schedule: Q08DX002 (ip), vehicle: saline): 154 % of control | T/C (dose: 300.0 mg/kg/injection, schedule: Q01DX001 (ip), vehicle: saline): 158 % of control | T/C (dose: 300.0 mg/kg/injection, schedule: Q01DX009 (ip), vehicle: saline): 216 % of control | T/C (dose: 300.0 mg/kg/injection, schedule: Q04DX003 (ip), vehicle: saline): 170 % of control | T/C (dose: 400.0 mg/kg/injection, schedule: Q01DX001 (ip), vehicle: water): 170 % of control | T/C (dose: 400.0 mg/kg/injection, schedule: Q01DX009 (ip), vehicle: saline with Tween-80): 181 % of control | T/C (dose: 400.0 mg/kg/injection, schedule: Q01DX009 (ip), vehicle: saline): 90 % of control | T/C (dose: 400.0 mg/kg/injection, schedule: Q04DX002 (ip), vehicle: saline): 163 % of control and 191 % of control | T/C (dose: 400.0 mg/kg/injection, schedule: Q04DX003 (ip), vehicle: saline): 180 % of control and 190 % of control | T/C (dose: 400.0 mg/kg/injection, schedule: Q04DX003 (ip), vehicle: water): 240 % of control | T/C (dose: 512.0 mg/kg/injection, schedule: Q01DX001 (ip), vehicle: saline): 163 % of control | T/C (dose: 512.0 mg/kg/injection, schedule: Q01DX009 (sc), vehicle: saline): 109 % of control | T/C (dose: 512.0 mg/kg/injection, schedule: Q08DX002 (ip), vehicle: saline): 159 % of control | T/C (dose: 600.0 mg/kg/injection, schedule: Q01DX001 (ip), vehicle: saline): 200 % of control | T/C (dose: 600.0 mg/kg/injection, schedule: Q01DX009 (ip), vehicle: saline): 116 % of control | T/C (dose: 600.0 mg/kg/injection, schedule: Q04DX003 (ip), vehicle: saline): 170 % of control | T/C (dose: 800.0 mg/kg/injection, schedule: Q04DX003 (ip), vehicle: saline): 181 % of control | T/C (dose: 1024.0 mg/kg/injection, schedule: Q01DX001 (ip), vehicle: saline): 109 % of control | T/C (dose: 1024.0 mg/kg/injection, schedule: Q01DX009 (sc), vehicle: saline): 100 % of control | T/C (dose: 1024.0 mg/kg/injection, schedule: Q08DX002 (ip), vehicle: saline): 177 % of control | T/C (dose: 2048.0 mg/kg/injection, schedule: Q01DX009 (sc), vehicle: saline): 100 % of control | T/C (dose: 2048.0 mg/kg/injection, schedule: Q04DX003 (ip), vehicle: saline): 109 % of control
